Source: ChEMBL document CHEMBL5338798, “An Analysis of Successful Hit-to-Clinical Candidate Pairs” (J Med Chem, 2023)

Molecular target: T1, Tyrosine-protein phosphatase non-receptor type 11 (Homo sapiens, UniProt Q06124)
T1 sequence (Q06124 whole entry): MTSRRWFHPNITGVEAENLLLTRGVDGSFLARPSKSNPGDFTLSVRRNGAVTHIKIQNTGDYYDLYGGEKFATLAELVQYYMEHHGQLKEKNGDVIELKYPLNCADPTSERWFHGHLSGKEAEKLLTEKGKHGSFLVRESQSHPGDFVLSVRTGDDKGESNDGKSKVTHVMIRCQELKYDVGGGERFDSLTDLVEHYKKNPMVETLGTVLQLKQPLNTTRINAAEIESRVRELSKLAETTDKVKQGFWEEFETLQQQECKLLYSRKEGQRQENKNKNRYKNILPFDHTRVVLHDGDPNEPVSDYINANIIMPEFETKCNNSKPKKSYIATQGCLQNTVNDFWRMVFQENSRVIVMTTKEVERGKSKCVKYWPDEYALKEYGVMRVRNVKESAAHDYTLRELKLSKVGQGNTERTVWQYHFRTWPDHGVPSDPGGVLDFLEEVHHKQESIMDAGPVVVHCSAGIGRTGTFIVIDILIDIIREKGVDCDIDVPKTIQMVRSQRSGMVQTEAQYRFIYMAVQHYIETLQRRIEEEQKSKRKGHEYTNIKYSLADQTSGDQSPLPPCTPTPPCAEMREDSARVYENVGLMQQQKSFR
Assay: Inhibition of SHP2 (unknown origin)

IC50: 0.03 µM
SMILES: CC1(N)CCN(c2cnc(Sc3cccc(Cl)c3Cl)c(N)n2)CC1
